This is an account of results in patent publication US20230192717A1, “COMPOSITIONS AND METHODS OF MODULATING SHORT-CHAIN DEHYDROGENASE ACTIVITY” (RODEO THERAPEUTICS CORPORATION, priority 2020, published 2023).

pIC50: −log10 of the molar value.

The target in this test is T1, recombinant 15-PGDH (Homo sapiens, UniProt P15428).
T1 sequence (P15428 1-266): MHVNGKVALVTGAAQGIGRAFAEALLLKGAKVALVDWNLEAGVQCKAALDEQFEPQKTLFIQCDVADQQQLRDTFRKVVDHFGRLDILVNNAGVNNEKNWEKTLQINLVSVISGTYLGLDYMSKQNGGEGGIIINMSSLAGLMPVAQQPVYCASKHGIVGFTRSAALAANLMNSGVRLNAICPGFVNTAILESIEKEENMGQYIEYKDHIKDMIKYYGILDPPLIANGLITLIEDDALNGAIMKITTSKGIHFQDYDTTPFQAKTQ
The test is described as follows: inhibition of enzymatic activity of recombinant 15-PGDH in vitro. Type of test: biochemical. The conditions noted are these: recombinant human 15-PGDH. An excerpt:
The Recombinant 15-PGDH is human unless otherwise specified.
Take `COCC[S+]([O-])c1sc2nc(-c3ccc4nccnc4c3)cc(C(C)C)c2c1N` (single isomer, unassigned) [Compound 25, 2-[2-methoxyethanesulfinyl]-4-(propan-2-yl)-6-(quinoxalin-6-yl)thieno[2,3-b]pyridin-3-amine]: the pIC50 is less than 8.00.

With `COCC[S@@+]([O-])c1sc2nc(-c3cnc(N)nc3)cc(C(C)C)c2c1N` (stereo in doubt) [Compound 18, 5-{3-amino-2-[2-methoxyethanesulfinyl]-4-(propan-2-yl)thieno[2,3-b]pyridin-6-yl}pyrimidin-2-amine], the pIC50 was more than 8.60.

Take `COCC[S@+]([O-])c1sc2nc(-c3cnc(N)nc3)cc(C(C)C)c2c1N` (stereo in doubt) [Compound 19, 5-{3-amino-2-[2-methoxyethanesulfinyl]-4-(propan-2-yl)thieno[2,3-b]pyridin-6-yl}pyrimidin-2-amine]: the pIC50 is less than 8.00.

Take `CNc1ncc(-c2cc(C(C)C)c3c(N)c([S+]([O-])CCOC)sc3n2)cn1` (stereo in doubt) [Compound 23, 5-{3-amino-2-[(R)-2-methoxyethanesulfinyl]-4-(propan-2-yl)thieno[2,3-b]pyridin-6-yl}-N-methylpyrimidin-2-amine]: the pIC50 is less than 8.00.

In the case of `COCC[S@@+]([O-])c1sc2nc(-c3ccc4nccnc4c3)cc(C(C)C)c2c1N` (stereo in doubt) [Compound 24, 2-[2-methoxyethanesulfinyl]-4-(propan-2-yl)-6-(quinoxalin-6-yl)thieno[2,3-b]pyridin-3-amine], the pIC50 was more than 8.60.

Consider `Cn1nccc1-c1cc(-c2cnc3ncccc3c2)nc2sc([S@+]([O-])C3CCC3)c(N)c12` (stereo in doubt) [Compound 26, 2-(cyclobutanesulfinyl)-4-(1-methyl-1H-pyrazol-5-yl)-6-(1,8-naphthyridin-3-yl)thieno[2,3-b]pyridin-3-amine], for which the pIC50 was more than 8.60.

As for `Cn1nccc1-c1cc(-c2cnc3ncccc3c2)nc2sc([S@@+]([O-])C3CCC3)c(N)c12` (stereo in doubt) [Compound 27, 2-(cyclobutanesulfinyl)-4-(1-methyl-1H-pyrazol-5-yl)-6-(1,8-naphthyridin-3-yl)thieno[2,3-b]pyridin-3-amine], the pIC50 was less than 8.00.

Consider `Cn1nccc1-c1cc(-c2ccc3nccnc3c2)nc2sc([S@+]([O-])C3CCC3)c(N)c12` [Compound 1, (R)-2-(cyclobutylsulfinyl)-4-(1-methyl-1H-pyrazol-5-yl)-6-(quinoxalin-6-yl)thieno[2,3-b]pyridin-3-amine], for which the pIC50 is more than 8.60.

With `Cn1nccc1-c1cc(-c2ccc3cncnc3c2)nc2sc([S@+]([O-])C3CCC3)c(N)c12` [Compound 2, 2-[(R)-cyclobutanesulfinyl]-4-(1-methyl-1H-pyrazol-5-yl)-6-(quinazolin-7-yl)thieno[2,3-b]pyridin-3-amine], the pIC50 was more than 8.60.

For the molecule `COCC[S+]([O-])c1sc2nc(-c3cnc4cccnc4c3)cc(-c3ccnn3C)c2c1N` (stereo not shown) [Compound 3, 2-(2-methoxyethanesulfinyl)-4-(1-methyl-1H-pyrazol-5-yl)-6-(1,5-naphthyridin-3-yl)thieno[2,3-b]pyridin-3-amine], the pIC50 is more than 8.60.

With `COCC[S@@+]([O-])c1sc2nc(-c3ccc4nccnc4c3)cc(-c3ccnn3C)c2c1N` [Compound 4, 2-[(R)-2-methoxyethanesulfinyl]-4-(1-methyl-1H-pyrazol-5-yl)-6-(quinoxalin-6-yl)thieno[2,3-b]pyridin-3-amine], the pIC50 is more than 8.60.

For the molecule `Cn1nccc1-c1cc(-c2cnc3ncccn23)nc2sc([S@+]([O-])C3CCC3)c(N)c12` [Compound 5, 2-[(R)-cyclobutanesulfinyl]-6-{imidazo[1,2-a]pyrimidin-3-yl}-4-(1-methyl-1H-pyrazol-5-yl)thieno[2,3-b]pyridin-3-amine], the pIC50 was 8.00 to 8.60.

`COCC[S+]([O-])c1sc2nc(-c3cnc4ncccc4c3)cc(C3CCC3)c2c1N` (stereo not shown) [Compound 6, 4-cyclobutyl-2-(2-methoxyethanesulfinyl)-6-(1,8-naphthyridin-3-yl)thieno[2,3-b]pyridin-3-amine]: the pIC50 is more than 8.60.
